From US9120804B2, “8-substituted 2-amino-[1,2,4] triazolo [1, 5-A] pyrazines as Syk tryrosine kinase inhibitors and GCN2 serin kinase inhibitors” (Merck Patent GmbH, priority 2012, dated 2015) come the findings set out here.

For orientation: IC50 means the midpoint of a concentration-inhibition curve. Read a low IC50 as greater potency.

One experiment addresses T1, SYK (Homo sapiens, UniProt P43405).
T1 construct: 2.5 nM SYK, 400 nM Biotin-Aha-Aha-KEDPDYEWPSAKK
The experiment can be described thus: SYK flash plate assay (enzyme assay). It counts as biochemical. The essentials: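 Radiometric Flashplate format: biotinylated peptide substrate (400 nM) and 33P-labelled ATP (10 μM) react with 2.5 nM enzyme for 1 hour at 30 °C in Hepes buffer, pH 7.5. After EDTA quench and washing, counts are taken; staurosporine defines non-specific signal, and IC50 values are derived.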

Another experiment concerns the target GCN2 (Homo sapiens, UniProt Q9P2K8). Nature of the experiment: GCN2 enzyme assay. It counts as biochemical.

Counter-ions that a name gives are not always drawn.

GCN2, sequence (Q9P2K8 whole entry): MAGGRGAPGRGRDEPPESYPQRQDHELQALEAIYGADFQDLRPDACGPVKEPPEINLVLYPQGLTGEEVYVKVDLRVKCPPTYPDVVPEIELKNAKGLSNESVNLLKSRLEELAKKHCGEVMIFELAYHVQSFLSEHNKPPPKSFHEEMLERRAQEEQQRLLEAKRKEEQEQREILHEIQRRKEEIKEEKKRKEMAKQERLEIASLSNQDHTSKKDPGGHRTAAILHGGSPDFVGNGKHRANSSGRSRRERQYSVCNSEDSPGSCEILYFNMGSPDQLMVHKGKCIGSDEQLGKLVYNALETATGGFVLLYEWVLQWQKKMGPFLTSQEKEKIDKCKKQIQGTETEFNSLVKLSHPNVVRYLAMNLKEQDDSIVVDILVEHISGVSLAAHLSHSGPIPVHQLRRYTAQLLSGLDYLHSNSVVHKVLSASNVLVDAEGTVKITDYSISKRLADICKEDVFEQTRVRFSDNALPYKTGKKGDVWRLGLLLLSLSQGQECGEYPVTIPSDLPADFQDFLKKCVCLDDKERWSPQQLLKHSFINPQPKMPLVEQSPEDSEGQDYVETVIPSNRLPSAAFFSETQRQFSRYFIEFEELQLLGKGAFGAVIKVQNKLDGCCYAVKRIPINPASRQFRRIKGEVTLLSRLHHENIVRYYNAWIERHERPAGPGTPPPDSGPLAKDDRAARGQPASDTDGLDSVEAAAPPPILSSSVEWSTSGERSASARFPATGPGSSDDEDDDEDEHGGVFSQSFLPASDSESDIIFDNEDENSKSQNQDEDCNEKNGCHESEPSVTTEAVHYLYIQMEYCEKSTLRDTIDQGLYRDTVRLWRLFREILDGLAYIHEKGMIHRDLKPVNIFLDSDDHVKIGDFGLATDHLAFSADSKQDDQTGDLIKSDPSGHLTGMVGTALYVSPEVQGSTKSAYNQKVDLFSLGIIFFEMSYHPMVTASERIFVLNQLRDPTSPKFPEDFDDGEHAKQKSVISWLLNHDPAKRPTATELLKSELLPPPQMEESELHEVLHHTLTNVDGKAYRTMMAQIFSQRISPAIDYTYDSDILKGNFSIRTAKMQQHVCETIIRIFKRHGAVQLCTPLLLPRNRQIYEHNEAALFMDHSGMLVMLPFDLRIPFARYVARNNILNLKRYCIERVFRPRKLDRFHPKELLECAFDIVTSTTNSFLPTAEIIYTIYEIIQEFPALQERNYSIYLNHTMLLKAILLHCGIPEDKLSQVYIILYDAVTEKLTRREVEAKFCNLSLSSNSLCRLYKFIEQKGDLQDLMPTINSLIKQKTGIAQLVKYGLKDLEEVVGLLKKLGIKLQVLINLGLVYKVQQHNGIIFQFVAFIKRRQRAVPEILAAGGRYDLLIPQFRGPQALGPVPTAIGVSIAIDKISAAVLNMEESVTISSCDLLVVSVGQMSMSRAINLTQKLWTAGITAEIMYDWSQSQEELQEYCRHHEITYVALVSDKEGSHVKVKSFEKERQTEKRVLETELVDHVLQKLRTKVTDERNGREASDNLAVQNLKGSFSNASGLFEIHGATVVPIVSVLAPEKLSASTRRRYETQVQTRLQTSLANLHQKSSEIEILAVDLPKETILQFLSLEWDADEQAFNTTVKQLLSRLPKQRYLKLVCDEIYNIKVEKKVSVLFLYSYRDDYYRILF

`COc1ccc(Nc2nc3c(-c4cnn(C)c4)nccn3n2)cc1` [C2, (4-Methoxy-phenyl)-[8-(1-methyl-1H-pyrazol-4-yl)-[1,2,4]triazolo[1,5-a]pyrazin-2-yl]-amine]: the IC50 on SYK lay within 0.3 to 3 µM; on GCN2, 3 to 50 µM.
In the case of `COc1ccc(Nc2nc3c(-c4cnn(C)c4)nccn3n2)cc1OC` [C6, (3,4-Dimethoxy-phenyl)-[8-(1-methyl-1H-pyrazol-4-yl)-[1,2,4]triazolo[1,5-a]pyrazin-2yl]-amine], the IC50 at SYK and on GCN2 was 0.3 to 3 µM in each case.
As for `COc1cccc(Nc2nc3c(-c4cnn(C)c4)nccn3n2)c1` [C8, (3-Methoxy-phenyl)-[8-(1-methyl-1H-pyrazol-4-yl)-[1,2,4]triazolo[1,5-a]pyrazin-2-yl]-amine], the IC50 on SYK and against GCN2 was 3 to 50 µM throughout.
In the case of `Cn1cc(-c2nccn3nc(Nc4ccc5cn[nH]c5c4)nc23)cn1` [C12, (1H-Indazol-6-yl)-[8-(1-methyl-1H-pyrazol-4-yl)-[1,2,4]triazolo[1,5-a]pyrazin-2-yl]-amine], the IC50 at SYK was 0.1 to 0.3 µM; against GCN2, 3 to 50 µM.
The corresponding values for `Cn1cc(-c2nccn3nc(Nc4cccc(S(N)(=O)=O)c4)nc23)cn1` [C14, 3-[8-(1-Methyl-1H-pyrazol-4-yl)-[1,2,4]triazolo[1,5-a]pyrazin-2-ylamino]-benzenesulfonamide] are 3 to 50 µM and 0.3 to 3 µM.
Take `Cn1cc(-c2nccn3nc(Nc4ccc(S(N)(=O)=O)cc4)nc23)cn1` [C16, 4-[8-(1-Methyl-1H-pyrazol-4-yl)-[1,2,4]triazolo[1,5-a]pyrazin-2-ylamino]-benzenesulfonamide]: the values for the IC50 at SYK and against GCN2 were 0.3 to 3 µM and 3 to 50 µM, respectively.
In the same order, the values of `Cn1cc(-c2nccn3nc(Nc4cccc(N5CCOCC5)c4)nc23)cn1` [C18, [8-(1-Methyl-1H-pyrazol-4-yl)-[1,2,4]triazolo[1,5-a]pyrazin-2-yl]-(3-morpholin-4-yl-phenyl)-amine] are 0.3 to 3 µM and 3 to 50 µM.
On to `Cn1cc(-c2nccn3nc(Nc4ccc5cnn(C)c5c4)nc23)cn1` [C21, (1-Methyl-1H-indazol-6-yl)-[8-(1-methyl-1H-pyrazol-4-yl)-[1,2,4]triazolo[1,5-a]pyrazin-2-yl]-amine], for which the IC50 is 0.3 to 3 µM at SYK and 3 to 50 µM on GCN2.
On to `Cn1cc(-c2nccn3nc(Nc4ccc(S(C)(=O)=O)cc4)nc23)cn1` [C23, (4-Methanesulfonyl-phenyl)-[8-(1-methyl-1H-pyrazol-4-yl)-[1,2,4]triazolo[1,5-a]pyrazin-2-yl]-amine], for which the IC50 was in the range of 0.3 to 3 µM on SYK and 3 to 50 µM at GCN2.
In the case of `Cn1cc(Nc2nc3c(-c4cnn(C)c4)nccn3n2)cn1` [C26, (1-Methyl-1H-pyrazol-4-yl)-[8-(1-methyl-1H-pyrazol-4-yl)-[1,2,4]triazolo[1,5-a]pyrazin-2-yl]-amine], the values for the IC50 against SYK and against GCN2 were 0.3 to 3 µM and 3 to 50 µM, respectively.
In the same order, the values of `Cn1cc(-c2nccn3nc(Nc4cnn(C5CCNCC5)c4)nc23)cn1` [C28, [8-(1-Methyl-1H-pyrazol-4-yl)-[1,2,4]triazolo[1,5-a]pyrazin-2-yl]-(1-piperidin-4-yl-1H-pyrazol-4-yl)-amine hydrochloride] are 3 to 50 µM and 0.3 to 3 µM.
In the same order, the values of `Cn1nnc2ccc(Nc3nc4c(-c5ccccc5-c5ccccc5)nccn4n3)cc21` [C29] are 0.1 to 0.3 µM and 3 to 50 µM.
The corresponding values for `Cn1cc(-c2nccn3nc(Nc4ccc5nnn(C)c5c4)nc23)cn1` [C30, (3-Methyl-3H-benzotriazol-5-yl)-[8-(1-methyl-1H-pyrazol-4-yl)-[1,2,4]triazolo[1,5-a]pyrazin-2-yl]-amine] are 0.3 to 3 µM and 0.3 to 3 µM.
`Cn1cc(-c2nccn3nc(Nc4ccc([S+](C)[O-])cc4)nc23)cn1` (centres unmarked) [C32, (4-Methanesulfinyl-phenyl)-[8-(1-methyl-1H-pyrazol-4-yl)-[1,2,4]triazolo[1,5-a]pyrazin-2-yl]-amine]: the figures for the IC50 at SYK and at GCN2 were 0.3 to 3 µM and 3 to 50 µM, respectively.
In the same order, the values of `CN(C)Cc1nc2ccc(Nc3nc4c(-c5cnn(C)c5)nccn4n3)cc2[nH]1` [C33, (2-Dimethylaminomethyl-3H-benzoimidazol-5-yl)-[8-(1-methyl-1H-pyrazol-4-yl)-[1,2,4]triazolo[1,5-a]pyrazin-2-yl]-amine] are 0.1 to 0.3 µM and 0.3 to 3 µM.
The corresponding values for `Cn1cc(-c2nccn3nc(Nc4ccc5c(c4)NC(=O)C5(C)C)nc23)cn1` [C34, 3,3-Dimethyl-6-[8-(1-methyl-1H-pyrazol-4-yl)-[1,2,4]triazolo[1,5-a]pyrazin-2-ylamino]-1,3-dihydro-indol-2-one] are less than 0.1 µM and 3 to 50 µM.
In the same order, the values of `Cn1cc(-c2nccn3nc(Nc4ccc(C#N)c(O)c4)nc23)cn1` [C36, 2-Hydroxy-4-[8-(1-methyl-1H-pyrazol-4-yl)-[1,2,4]triazolo[1,5-a]pyrazin-2-ylamino]-benzonitrile] are 0.3 to 3 µM and 0.3 to 3 µM.
Take `CS(=O)(=O)c1ccc(-c2nccn3nc(Nc4ccc(N5CCOCC5)cc4)nc23)cc1` [C38, 8-(4-methylsulfonylphenyl)-N-(4-morpholinophenyl)-[1,2,4]triazolo[1,5-a]pyrazin-2-amine]: the IC50 at SYK was 0.1 to 0.3 µM; against GCN2 it was 0.3 to 3 µM.
The corresponding values for `O=C(c1ccc(-c2nccn3nc(Nc4ccc(N5CCOCC5)cc4)nc23)cc1)N1CCOCC1` [C41, morpholin-4-yl-{4-[2-(4-morpholin-4-yl-phenylamino)-[1,2,4]triazolo[1,5-a]pyrazin-8-yl]-phenyl}-methanone] are 3 to 50 µM and 3 to 50 µM.
The corresponding values for `COc1cc(Nc2nc3c(N4CCNC(=O)C4)nccn3n2)cc(OC)c1` [C43, 4-[2-(3,5-dimethoxy-phenylamino)-[1,2,4]triazolo[1,5-a]pyrazin-8-yl]-piperazin-2-one] are 0.3 to 3 µM and 3 to 50 µM.
As for `COc1cc(Nc2nc3c(N4CCCC(C(=O)NCCO)C4)nccn3n2)cc(OC)c1` (centres unmarked) [C45, 1-[2-(3,5-dimethoxy-phenylamino)-[1,2,4]triazolo[1,5-a]pyrazin-8-yl]-piperidine-3-carboxylic acid (2-hydroxy-ethyl)-amide], the IC50 on SYK and against GCN2 was 3 to 50 µM in each case.
Turning to `Cc1nc2cc(Nc3nc4c(-c5ccc(C(=O)N6CCOCC6)cc5)nccn4n3)ccc2[nH]1` [C48, {4-[2-(2-methyl-1H-benzoimidazol-5-ylamino)-[1,2,4]triazolo[1,5-a]pyrazin-8-yl]-phenyl}-morpholin-4-yl-methanone], the IC50 lay within 3 to 50 µM on SYK and 0.3 to 3 µM against GCN2.
In the same order, the values of `COc1cc(Nc2nc3c(N4CCC(O)(CCO)CC4)nccn3n2)cc(OC)c1` [C49, 1-[2-(3,5-dimethoxy-phenylamino)-[1,2,4]triazolo[1,5-a]pyrazin-8-yl]-4-(2-hydroxy-ethyl)-piperidin-4-ol] are 0.3 to 3 µM and 3 to 50 µM.
Turning to `COc1cc(Nc2nc3c(N4CCC(N)CC4)nccn3n2)cc(OC)c1` [C50, [8-(4-amino-piperidin-1-yl)-[1,2,4]triazolo[1,5-a]pyrazin-2-yl]-(3,5-dimethoxy-phenyl)-amine], the IC50 lay within 0.3 to 3 µM against SYK and 3 to 50 µM against GCN2.
The corresponding values for `COc1cc(Nc2nc3c(N4CCN(C(C)=O)CC4)nccn3n2)cc(OC)c1` [C51, 1-{4-[2-(3,5-dimethoxy-phenylamino)-[1,2,4]triazolo[1,5-a]pyrazin-8-yl]-piperazin-1-yl}-ethanone] are 3 to 50 µM and 3 to 50 µM.
The corresponding values for `COc1cc(Nc2nc3c(N4CCN(C)CC4c4ccccc4)nccn3n2)cc(OC)c1` (centres unmarked) [C55, (3,5-dimethoxy-phenyl)-[8-(4-methyl-2-phenyl-piperazin-1-yl)-[1,2,4]triazolo[1,5-a]pyrazin-2-yl]-amine] are 0.3 to 3 µM and 3 to 50 µM.
For the molecule `COc1cc(Nc2nc3c(N4CCN(C(=O)CO)CC4)nccn3n2)cc(OC)c1` [C56, 1-{4-[2-(3,5-dimethoxy-phenylamino)-[1,2,4]triazolo[1,5-a]pyrazin-8-yl]-piperazin-1-yl}-2-hydroxy-ethanone], the figures for the IC50 against SYK and against GCN2 were 0.3 to 3 µM and 3 to 50 µM, respectively.
Consider `Cc1nc2cc(Nc3nc4c(-c5ccc(CN6CCOCC6)cc5)nccn4n3)ccc2[nH]1` [C57, (2-methyl-1H-benzoimidazol-5-yl)-[8-(4-morpholin-4-ylmethyl-phenyl)-[1,2,4]triazolo[1,5-a]pyrazin-2-yl]-amine], for which the IC50 at SYK lay within 3 to 50 µM; against GCN2, 0.3 to 3 µM.
On to `Cc1nc2cc(Nc3nc4c(-c5ccc(S(C)(=O)=O)cc5)nccn4n3)ccc2[nH]1` [C58, [8-(4-methanesulfonyl-phenyl)-[1,2,4]triazolo[1,5-a]pyrazin-2-yl]-(2-methyl-1H-benzoimidazol-5-yl)-amine], for which the IC50 against SYK and against GCN2 was 0.3 to 3 µM each time.
For the molecule `Cc1nc2cc(Nc3nc4c(-c5ccc(CN6CCOCC6)c(F)c5)nccn4n3)ccc2[nH]1` [C59, [8-(3-fluoro-4-morpholin-4-ylmethyl-phenyl)-[1,2,4]triazolo[1,5-a]pyrazin-2-yl]-(2-methyl-1H-benzoimidazol-5-yl)-amine], the IC50 at SYK was in the range of 3 to 50 µM; against GCN2, 0.3 to 3 µM.
On SYK, `CC1(C)CCNc2cc(Nc3nc4c(N5CCN6C(=O)CNC(=O)C6C5)nccn4n3)ccc21` (centres unmarked) [E154, 8-[2-(4,4-dimethyl-1,2,3,4-tetrahydro-quinolin-7-ylamino)-[1,2,4]triazolo[1,5-a]pyrazin-8-yl]-hexahydro-pyrazino[1,2-a]pyrazine-1,4-dione] had an IC50 of less than 0.1 µM.
In turn, `Cn1cc(-c2nccc3nc(Nc4ccc5c(c4)NC(=O)CCC5(C)C)nn23)cn1` [E155, 5,5-dimethyl-8-[5-(1-methyl-1H-pyrazol-4-yl)-[1,2,4]triazolo[1,5-c]pyrimidin-2-ylamino]-1,3,4,5-tetrahydro-benzo[b]azepin-2-one] gave an IC50 against SYK of less than 0.1 µM.
